Assay results taken from publication PMC13415951 (Journal of Experimental Botany, 2026).
Changes are numbered by the printed parent chain. Where “and” joins values, the source holds several entries; their conditions need not be identical. Equal values may be shown once. Read-outs that look alike come from different tables or passages of the source.

Legend:
[1] = molecular target: T1, HvUGT13248 (Hordeum vulgare subsp. vulgare, UniProt M0Y4P1)
T1 sequence (M0Y4P1 1-475): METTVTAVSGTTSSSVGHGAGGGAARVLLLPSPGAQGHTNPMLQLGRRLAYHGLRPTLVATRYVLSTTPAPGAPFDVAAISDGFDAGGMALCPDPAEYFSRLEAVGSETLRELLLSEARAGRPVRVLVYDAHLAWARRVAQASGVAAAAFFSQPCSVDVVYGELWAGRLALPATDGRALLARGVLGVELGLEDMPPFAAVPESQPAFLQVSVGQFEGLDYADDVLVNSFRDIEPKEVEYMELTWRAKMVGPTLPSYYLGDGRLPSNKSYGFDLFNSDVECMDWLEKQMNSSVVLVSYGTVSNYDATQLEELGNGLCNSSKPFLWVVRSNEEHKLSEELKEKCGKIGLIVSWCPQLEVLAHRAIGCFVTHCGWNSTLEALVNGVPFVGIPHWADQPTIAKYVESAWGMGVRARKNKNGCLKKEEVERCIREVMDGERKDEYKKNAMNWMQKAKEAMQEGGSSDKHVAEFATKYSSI

[2] = molecular target: T2, OsUGT79 (Oryza sativa subsp. japonica, UniProt Q7XT97); assay: biochemical; format: biochemical
T2 construct: made in house; host or cells: E. coli
T2 sequence (Q7XT97 1-466): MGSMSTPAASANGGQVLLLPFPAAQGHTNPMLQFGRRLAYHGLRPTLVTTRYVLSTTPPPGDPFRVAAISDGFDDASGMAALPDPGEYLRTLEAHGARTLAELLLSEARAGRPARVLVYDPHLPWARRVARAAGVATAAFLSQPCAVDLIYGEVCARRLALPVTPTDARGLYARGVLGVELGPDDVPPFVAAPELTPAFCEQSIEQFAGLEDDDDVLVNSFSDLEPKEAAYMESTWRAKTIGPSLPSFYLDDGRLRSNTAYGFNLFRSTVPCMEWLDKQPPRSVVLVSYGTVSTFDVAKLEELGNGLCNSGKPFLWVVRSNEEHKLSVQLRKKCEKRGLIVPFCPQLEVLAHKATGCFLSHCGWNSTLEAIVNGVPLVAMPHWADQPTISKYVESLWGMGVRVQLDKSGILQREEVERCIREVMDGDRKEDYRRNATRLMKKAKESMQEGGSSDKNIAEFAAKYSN

[3] = molecular target: T3, BdUGT5g03300 (Brachypodium distachyon, UniProt I1IW79); assay: biochemical
T3 sequence (I1IW79 1-469): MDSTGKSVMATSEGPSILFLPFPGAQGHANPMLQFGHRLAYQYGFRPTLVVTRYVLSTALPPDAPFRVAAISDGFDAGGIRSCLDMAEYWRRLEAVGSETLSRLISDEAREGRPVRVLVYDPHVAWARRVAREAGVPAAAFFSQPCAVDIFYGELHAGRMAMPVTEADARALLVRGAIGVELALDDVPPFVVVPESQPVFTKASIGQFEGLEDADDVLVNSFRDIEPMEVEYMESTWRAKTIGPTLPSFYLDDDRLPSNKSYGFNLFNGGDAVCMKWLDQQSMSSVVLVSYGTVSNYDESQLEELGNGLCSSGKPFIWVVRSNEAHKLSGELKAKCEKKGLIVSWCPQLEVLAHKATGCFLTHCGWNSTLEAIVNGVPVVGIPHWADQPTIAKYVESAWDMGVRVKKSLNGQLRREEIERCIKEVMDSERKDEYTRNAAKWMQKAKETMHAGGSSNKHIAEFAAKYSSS

[4] = tested on: B. distachyon Bd21-3; design: species or system Brachypodium distachyon; details: in vivo
[5] = molecular target: T4, OsUGT79 Q202A (Oryza sativa subsp. japonica, UniProt Q7XT97, Q202A); format: biochemical
T4 sequence (Q7XT97 1-466 Q202A): T2 sequence (Q7XT97 1-466) with Q202A

[6] = molecular target: T5, OsUGT79 H122A/L123A/Q202A (Oryza sativa subsp. japonica, UniProt Q7XT97, H122A/L123A/Q202A); assay: biochemical; format: biochemical
T5 sequence (Q7XT97 1-466 H122A/L123A/Q202A): T2 sequence (Q7XT97 1-466) with H122A, L123A, Q202A

[7] = molecular target: T1, HvUGT13248; assay: biochemical; format: biochemical; design: made in house; host or cells: E. coli
[8] = molecular target: T5, OsUGT79 H122A/L123A/Q202A; format: biochemical
[9] = molecular target: T4, OsUGT79 Q202A; assay: biochemical; format: biochemical
[10] = tested on: B. distachyon line OE-10R14; design: species or system Brachypodium distachyon; details: in vivo
[11] = molecular target: T3, BdUGT5g03300; format: biochemical
[12] = tested on: wheat cultivar Apogee seedlings; design: species or system Triticum aestivum; details: in vivo
[13] = molecular target: T2, OsUGT79; assay: biochemical; format: biochemical; remark: listed apart in the source
[14] = substrate: CC1(C)CCC[C@]2(C)[C@@H]3[C@H]1[C@@H](O)[C@@]2(C)C[C@H]3O; assay: purified protein, by the assay type

Question: Which results are given for Culmorin-8-glucoside?
Answer: Glucosylation rate of DON, percentage of the control [1]: 92±2% and 81±3%; Glucosylation rate of DON, percentage of the control [2]: 97±7% and 91±7%; Glucosylation rate of DON, percentage of the control [3]: 0.93±0.02%

Question: For `CC1=C[C@H]2O[C@@H]3[C@H](O)C[C@](C)([C@@]2(CO)[C@H](O)C1=O)[C@]31CO1` [DON, deoxynivalenol], which “DON concentration up to which root growth was observed” value [4] is on record?
Answer: Its value is “up to 16 mg l^−1”.

Question: What about the “DON concentrations at which root growth was not affected or barely affected” value [4] of the same molecule?
Answer: The value was 2 to 8 mg/L.

Question: And the “Specific activity (glucoside formation)” value [5]?
Answer: Its value is 161 ± 46 nmol/min/mg.

Question: What about the “Specific activity (glucoside formation)” value [1] of the same molecule?
Answer: The value was 8.77 ± 0.52 nmol/min/mg.

Question: What about the “K M (DON)” value [6] of the same molecule?
Answer: The value was 1300 µM.

Question: What about the “V max with DON” value [6] of the same molecule?
Answer: The value was 0.26 µmol/min/mg.

Question: What about the “K M (DON)” value [7] of the same molecule?
Answer: The value was 1800 µM.

Question: What about the “V max with DON” value [7] of the same molecule?
Answer: The value was 0.18 µmol/min/mg.

Question: What about the “Specific activity (glucoside formation)” value [8] of the same molecule?
Answer: The value was 6.60 ± 0.31 nmol/min/mg.

Question: What about the “K M (DON)” value [9] of the same molecule?
Answer: Its value is 290 µM.

Question: And the “V max with DON” value [9]?
Answer: The value was 0.85 µmol/min/mg.

Question: And the “Specific activity (glucoside formation)” value [2]?
Answer: Its value is 159 ± 33 nmol/min/mg.

Question: What about the “DON concentration tolerated without significant reduction in root length” value [10] of the same molecule?
Answer: Its value is “up to 50 mg l^−1”.

Question: What about the “K M (DON)” value [11] of the same molecule?
Answer: Its value is 1100 µM.

Question: What about the “V max with DON” value [11] of the same molecule?
Answer: The value was 0.14 µmol/min/mg.

Question: What about the “DON concentration at which root growth was already impaired” value [12] of the same molecule?
Answer: Its value is 3 mg/L.

Question: What about the “Effect on primary and total root length” value [12] of the same molecule?
Answer: Its value is “significant reduction”.

Question: And the “K M (DON)” value [13]?
Answer: The value was 190 µM.

Question: What about the “V max with DON” value [13] of the same molecule?
Answer: The value was 0.63 µmol/min/mg.

Question: And the “Specific activity (glucoside formation)” value [3]?
Answer: The value was 1.07 ± 0.03 nmol/min/mg.

Question: What does the source list for Culmorin-11-sulfate?
Answer: Glucosylation rate of DON, percentage of the control [1]: 90±2% and 49±3%; Glucosylation rate of DON, percentage of the control [2]: 91±7% and 61±2%; Glucosylation rate of DON, percentage of the control [3]: 0.30±0.02%

Question: Which “Glucosylation rate of DON, percentage of the control” value [1] does the source give for Culmorin-8-sulfate here?
Answer: The value was 97±4% and 79±1%.

Question: What about the “Glucosylation rate of DON, percentage of the control” value [2] of the same molecule?
Answer: The value was 105±1% and 89±4%.

Question: With Culmorin-8,11-disulfate as the molecule, how does the “Glucosylation rate of DON, percentage of the control” value [1] read?
Answer: Its value is 98±2%.

Question: What about the “Glucosylation rate of DON, percentage of the control” value [2] of the same molecule?
Answer: The value was 103±2% and 99±7%.

Question: What about the “Glucosylation rate of DON, percentage of the control” value [3] of the same molecule?
Answer: Its value is 95±1% and 78±1%.

Question: For 11-Acetyl-culmorin, which “Glucosylation rate of DON, percentage of the control” value [3] is on record?
Answer: The value was 0.83±0.01%.

Question: Which “Glucosylation rate of DON, percentage of the control” value [2] does the source give for Culmorin-11-glucoside here?
Answer: Its value is 96±7% and 115±5%.

Question: And the “Glucosylation rate of DON, percentage of the control” value [3]?
Answer: Its value is 0.48±0.03%.

B1: BdUGT5g03370 (Brachypodium distachyon) (protein)
chain: MDSINTTAQRSIGGGGGHVLLLPFPGMQGHANPMLQLGRRLAYHGLRPTLVVTRYVFSTTATTDGCPFPVAAISDGFDAGGIASCPDTAEYLRRMESVGSETLSRLISDEARAGRPVRVLVYDSHLPWARRAAKRAGVAAAAFLTQLCAVDVIYGEAWAGRVALPLTDGSALRGVLSVELGPDDVPPFVAAPEWYPAFTESALGQFDGLEEADDVLVNSFRDLEPKEADYMELVWRTKTVGPTLPSFYLDDNRLPLNKTYGFNLFSSIALCMEWLDKQVPCSVVLASYGTVANLNSTQLEELGYGLCNSRQPFLWVLRSDEAEKLPKDLRDKCNTKGLIVPFCPQLEVLAHKATGCFLTHCGWNSTIEAIVTGVPMVAIPQWADQPTTAKYVESAWGIGRRACPDRECLVTREKIERCVKEVICGEKEYTRNAAKWMQKAKEAMQQGGSSDKNISDFVAKYL
Question: For B1, which Km [14] is on record?
Answer: The Km was 59 ± 7 µM.

Question: What about the Vmax [14] of the same molecule?
Answer: Its Vmax is 0.57 nmol/min/mg.

B2: BdUGT5g03380 (Brachypodium distachyon) (protein)
chain: MESVNTSPHSSDHEGGGGGGAHVLLVPLPAQGHMNPMLQFGRRLAYHGLRPTLAATRYVLSTGPPPGAPFRVAAFSDGFDAGGMASCADPVEYCRKFEAVGSSTLAQAIESETAAGRAPTVLVYDPHMAWVPRVARAAGVPVAAFMSQSCAVDLVYGEAWAGRAPLPMADGSALKRRGIVSIDLAAEDLSPFVVSPEIYPKYLDVSIRQFEALDDADDVFVNSFRDLEPLEAEYMEKRWRAKTVGPTLPSFFLGDDRLPSNKAYGVNFFSATAPCMAWLDRQPARSVVLASYGTVYNLESMELDELGNGLCDSGKPFLWVVRSSEAEKLSEQLLGRCKEKGLIVPWCPQLDVLAHNAIGCFLTHCGWNSTTEAIVAGVPMVAMPRSADQPTTAKYVESAWGIGVRVRADEKGLVKRAEVEGCIKKVMDGEMKDEFRGNAAEWMRKAKEAMQEGGSSDKNIAEFAAKYLER
Question: How did the Km [14] turn out when B2 was run?
Answer: Its Km is 150 µM.

Question: And the Vmax [14]?
Answer: The Vmax was 0.43 ± 0.03 nmol/min/mg.

B3: HvUGT13248 (Hordeum vulgare subsp. vulgare) (protein)
chain: T1 sequence (M0Y4P1 1-475)
Question: For B3, which Km ([14]; pH 7.0) is on record?
Answer: The Km was 27 ± 4 µM.

Question: And the Vmax ([14]; pH 7.0)?
Answer: The Vmax was 18.2 ± 0.8 nmol/min/mg.
